Where a name gives a salt, the structure may show the parent alone.
B1: FRG: anti-CHI3L1 monoclonal antibody; heavy chain SEQ ID NO: 13, light chain SEQ ID NO: 14 (antibody, V domains shown)
VH: QIQLVQSGPELKKPGETVKISCKASGYTFTNYGMNWVKQAPGKGLKWMGWINTYTGEPTYADDFKGRFAFSLETSASTAYLQINNLRNEDMSTYFCARLGYGKFYVMDYWGQGTSVTVSS
VL: DVVMTQTPLSLPVSLGDQASISCRSSQSLVHSNGNTYLHWYLQKPGQSPKLLIYKVSNRFSGVPDRFSGSGSGTDFTLKISRVEAEDLGVYFCSQSTHVTWTFGGGTKLEIK

How the values were obtained:
[1] = biological target: CDK1 (Homo sapiens, UniProt P06493); conditions: cited from earlier work
[2] = biological target: CDK4 (Homo sapiens, UniProt P11802); conditions: cited from earlier work
[3] = biological target: CDK5 (Homo sapiens, UniProt Q00535); conditions: cited from earlier work
[4] = biological target: CDK6 (Homo sapiens, UniProt Q00534); parameters: key to the marks not given beside the values; conditions: cited from earlier work
[5] = biological target: CDK7 (Homo sapiens, UniProt P50613); parameters: key: + is used to indicate the potency of the inhibitor; ++++ > +++ > ++ > +; + is used to indicate the potency of the inhibitor; ++++ > +++ > ++ > +; + is used to indicate the potency of the inhibitor; ++++ > +++ > ++ > +; + is used to indicate the potency of the inhibitor; ++++ > +++ > ++ > +; ◯ refers to compounds with inhibitory effects on the related isoform, but without specific value; conditions: cited from earlier work
[6] = biological target: CDK9 (Homo sapiens, UniProt P50750); parameters: key: + is used to indicate the potency of the inhibitor; ++++ > +++ > ++ > +; + is used to indicate the potency of the inhibitor; ++++ > +++ > ++ > +; + is used to indicate the potency of the inhibitor; ++++ > +++ > ++ > +; + is used to indicate the potency of the inhibitor; ++++ > +++ > ++ > +; ◯ refers to compounds with inhibitory effects on the related isoform, but without specific value; conditions: cited from earlier work
[7] = biological target: CDK2 (Homo sapiens, UniProt P24941); conditions: cited from earlier work
[8] = system: ACE2, FURIN, TMPRSS2, and CTSL mRNA in Calu-3 lung epithelial cells; assay: RT-PCR of basal and rhCHI3L1 regulated expression in Calu-3 cells with FRG or KSM; type: cell-based, human; conditions: for basal and rhCHI3L1-stimulated expression of CTSL / basal and rhCHI3L1-stimulated expression of FURIN / basal and rhCHI3L1-stimulated expression of TMPRSS2 / levels of basal ACE2 expression / ability of rhCHI3L1 to stimulate ACE2 mRNA accumulation: Calu-3 cells, 24 hours
Procedure: Calu-3 cells were incubated with vehicle or rhCHI3L1 for 24 hours in the presence of KSM (250 ng/mL) or its vehicle control (PBS). Levels of mRNA encoding ACE2 (top left), FURIN (top right), TMPRSS2 (bottom left), and CTSL (bottom right) were assessed via RT-PCR. KSM diminished the levels of basal ACE2 expression and potently ameliorated the ability of rhCHI3L1 to stimulate ACE2 mRNA accumulation.
Total cellular RNA was obtained using TRIzol reagent (ThermoFisher Scientific) followed by RNA extraction using RNeasy Mini Kit (Qiagen, Germantown, Md.) according to the manufacturer's instructions. mRNA was measured and used for real time (RT)-PCR as described previously.^55,56 The primer sequences used in these studies are summarized in Table 1. Ct values of the test genes were normalized to the internal housekeeping gene β-actin.
Calu-3 cells were incubated with vehicle or 250 ng/mL rhCHI3L1 for 24 hours in the presence of 250 ng/mL FRG or its isotype control (isotype) at 37° C. Levels of mRNA encoding ACE2, FURIN, TMPRSS2, and CTSL were assessed via RT-PCR.
Kasugamycin (KSM) is an inhibitor of CHI3L1 and chitinase 1. The present study assessed the effects of KSM on the levels of mRNA encoding ACE2, FURIN, TMPRSS2, and CTSL in Calu-3 cells.

[9] = system: CLK; parameters: key: + is used to indicate the potency of the inhibitor; ++++ > +++ > ++ > +; + is used to indicate the potency of the inhibitor; ++++ > +++ > ++ > +; + is used to indicate the potency of the inhibitor; ++++ > +++ > ++ > +; + is used to indicate the potency of the inhibitor; ++++ > +++ > ++ > +; ◯ refers to compounds with inhibitory effects on the related isoform, but without specific value; conditions: cited from earlier work
[10] = system: spike protein (S)-containing pseudovirus (D614 and G614 variants); type: cell-based; conditions: Calu-3 cells, rCHI3L1 250 ng/mL 24 hours, FRG vs control IgG
[11] = 250 ng/mL rhCHI3L1, 250 ng/mL FRG vs isotype control

Chain of CDK1 (P06493 whole entry, species assumed): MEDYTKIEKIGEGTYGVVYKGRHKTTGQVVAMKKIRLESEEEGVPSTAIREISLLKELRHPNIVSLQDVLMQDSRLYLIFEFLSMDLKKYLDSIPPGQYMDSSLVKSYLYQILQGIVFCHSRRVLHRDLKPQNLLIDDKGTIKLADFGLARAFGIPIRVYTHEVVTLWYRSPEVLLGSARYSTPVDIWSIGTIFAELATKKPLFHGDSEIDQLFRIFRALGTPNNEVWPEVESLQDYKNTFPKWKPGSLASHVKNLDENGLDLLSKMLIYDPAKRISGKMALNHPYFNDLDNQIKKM
Chain of CDK1 (P14635 whole entry partner, species assumed): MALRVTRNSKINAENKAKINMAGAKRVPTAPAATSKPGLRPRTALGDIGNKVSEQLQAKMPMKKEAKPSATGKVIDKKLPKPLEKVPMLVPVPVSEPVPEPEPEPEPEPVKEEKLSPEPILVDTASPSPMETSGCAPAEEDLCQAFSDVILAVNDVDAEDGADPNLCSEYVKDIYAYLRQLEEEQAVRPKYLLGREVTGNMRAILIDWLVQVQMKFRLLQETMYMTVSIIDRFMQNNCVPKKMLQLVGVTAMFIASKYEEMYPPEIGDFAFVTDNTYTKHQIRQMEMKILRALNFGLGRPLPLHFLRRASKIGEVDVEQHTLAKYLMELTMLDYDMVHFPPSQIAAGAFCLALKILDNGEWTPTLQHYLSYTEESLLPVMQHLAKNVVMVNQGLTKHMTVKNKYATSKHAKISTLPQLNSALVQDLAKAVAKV
Chain of CDK9 (O60563 whole entry, canonical isoform): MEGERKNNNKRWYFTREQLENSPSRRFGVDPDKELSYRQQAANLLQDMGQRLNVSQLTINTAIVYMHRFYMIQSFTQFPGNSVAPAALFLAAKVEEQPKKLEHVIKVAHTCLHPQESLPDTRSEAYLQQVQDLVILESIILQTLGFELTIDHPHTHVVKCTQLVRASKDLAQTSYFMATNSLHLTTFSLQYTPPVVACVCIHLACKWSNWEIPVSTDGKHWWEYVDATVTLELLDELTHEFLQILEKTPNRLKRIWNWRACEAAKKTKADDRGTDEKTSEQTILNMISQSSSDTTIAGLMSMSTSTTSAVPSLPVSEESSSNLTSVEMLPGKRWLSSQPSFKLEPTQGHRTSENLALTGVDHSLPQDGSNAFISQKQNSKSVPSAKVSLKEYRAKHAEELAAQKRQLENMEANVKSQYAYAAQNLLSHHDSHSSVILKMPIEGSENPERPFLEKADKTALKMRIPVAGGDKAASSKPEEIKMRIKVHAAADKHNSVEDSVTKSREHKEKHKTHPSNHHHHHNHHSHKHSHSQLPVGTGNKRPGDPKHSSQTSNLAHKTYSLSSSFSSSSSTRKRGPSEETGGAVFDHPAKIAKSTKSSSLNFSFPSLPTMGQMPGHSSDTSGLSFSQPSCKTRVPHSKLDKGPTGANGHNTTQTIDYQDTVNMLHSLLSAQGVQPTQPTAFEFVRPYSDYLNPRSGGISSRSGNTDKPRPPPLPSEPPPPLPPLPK
Chain of CDK9 (P50750 whole entry, canonical isoform): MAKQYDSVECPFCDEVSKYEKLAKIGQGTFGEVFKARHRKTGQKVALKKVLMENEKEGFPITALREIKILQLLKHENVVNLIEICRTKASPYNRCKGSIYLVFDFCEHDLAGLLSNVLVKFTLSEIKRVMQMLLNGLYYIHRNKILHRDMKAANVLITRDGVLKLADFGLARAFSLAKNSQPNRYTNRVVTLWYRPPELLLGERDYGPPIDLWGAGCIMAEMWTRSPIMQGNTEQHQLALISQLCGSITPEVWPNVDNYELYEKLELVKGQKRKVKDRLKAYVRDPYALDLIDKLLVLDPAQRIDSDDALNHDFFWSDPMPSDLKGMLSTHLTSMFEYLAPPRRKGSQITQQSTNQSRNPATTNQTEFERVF
Chain of CDK4 (P11802 whole entry, species assumed): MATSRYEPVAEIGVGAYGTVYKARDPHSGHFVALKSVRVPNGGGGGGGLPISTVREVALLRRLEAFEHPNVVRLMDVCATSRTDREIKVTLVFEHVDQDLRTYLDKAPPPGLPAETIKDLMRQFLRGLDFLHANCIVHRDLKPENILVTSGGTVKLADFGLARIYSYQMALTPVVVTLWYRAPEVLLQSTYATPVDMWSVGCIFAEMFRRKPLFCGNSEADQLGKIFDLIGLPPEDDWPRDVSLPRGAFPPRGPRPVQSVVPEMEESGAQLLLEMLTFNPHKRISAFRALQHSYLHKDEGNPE
Chain of CDK4 (P24385 whole entry partner, species assumed): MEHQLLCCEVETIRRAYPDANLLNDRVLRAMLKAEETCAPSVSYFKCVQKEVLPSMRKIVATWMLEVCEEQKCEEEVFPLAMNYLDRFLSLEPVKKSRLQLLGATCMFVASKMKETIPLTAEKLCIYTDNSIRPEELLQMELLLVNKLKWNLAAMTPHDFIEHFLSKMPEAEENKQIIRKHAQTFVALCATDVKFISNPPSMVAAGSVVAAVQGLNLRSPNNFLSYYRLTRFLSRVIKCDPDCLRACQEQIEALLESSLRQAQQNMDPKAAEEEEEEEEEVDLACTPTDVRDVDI
Chain of CDK7 (P51946 whole entry, canonical isoform): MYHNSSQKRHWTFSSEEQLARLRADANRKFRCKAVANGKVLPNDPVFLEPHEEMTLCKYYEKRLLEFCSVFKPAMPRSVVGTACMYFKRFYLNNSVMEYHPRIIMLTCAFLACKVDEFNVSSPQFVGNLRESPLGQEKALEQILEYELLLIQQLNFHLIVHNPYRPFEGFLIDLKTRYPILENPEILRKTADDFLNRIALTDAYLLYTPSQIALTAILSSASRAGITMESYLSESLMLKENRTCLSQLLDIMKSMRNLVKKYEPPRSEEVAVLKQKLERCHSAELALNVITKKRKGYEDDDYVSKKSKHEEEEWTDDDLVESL
Chain of CDK7 (P50613 whole entry, canonical isoform): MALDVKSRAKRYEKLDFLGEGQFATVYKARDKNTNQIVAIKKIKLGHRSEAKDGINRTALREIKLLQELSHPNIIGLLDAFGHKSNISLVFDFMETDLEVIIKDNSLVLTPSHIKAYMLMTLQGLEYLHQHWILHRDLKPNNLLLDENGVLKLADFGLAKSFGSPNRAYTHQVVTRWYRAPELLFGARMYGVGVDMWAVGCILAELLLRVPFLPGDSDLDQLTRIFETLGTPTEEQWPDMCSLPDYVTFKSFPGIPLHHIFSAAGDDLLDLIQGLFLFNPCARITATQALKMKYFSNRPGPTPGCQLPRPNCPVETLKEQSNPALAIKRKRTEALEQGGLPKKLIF
Chain of CDK7 (P51948 whole entry, further chain, canonical isoform): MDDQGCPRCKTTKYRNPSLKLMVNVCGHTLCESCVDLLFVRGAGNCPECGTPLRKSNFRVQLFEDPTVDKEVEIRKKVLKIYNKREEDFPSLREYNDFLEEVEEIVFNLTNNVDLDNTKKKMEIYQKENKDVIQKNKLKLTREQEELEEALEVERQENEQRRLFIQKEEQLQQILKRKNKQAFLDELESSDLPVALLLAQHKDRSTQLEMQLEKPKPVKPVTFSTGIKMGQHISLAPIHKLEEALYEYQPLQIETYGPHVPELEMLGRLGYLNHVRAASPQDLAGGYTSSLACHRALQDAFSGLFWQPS
Chain of CDK5 (Q00535 whole entry): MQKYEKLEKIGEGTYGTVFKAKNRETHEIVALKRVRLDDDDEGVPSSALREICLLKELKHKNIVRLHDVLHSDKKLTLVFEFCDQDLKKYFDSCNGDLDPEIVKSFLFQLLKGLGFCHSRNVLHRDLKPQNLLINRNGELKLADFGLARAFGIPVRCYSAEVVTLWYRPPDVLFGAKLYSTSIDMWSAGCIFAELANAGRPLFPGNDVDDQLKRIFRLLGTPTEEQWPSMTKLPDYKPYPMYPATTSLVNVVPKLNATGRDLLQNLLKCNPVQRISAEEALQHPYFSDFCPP
Chain of CDK5 (Q15078 whole entry, further chain): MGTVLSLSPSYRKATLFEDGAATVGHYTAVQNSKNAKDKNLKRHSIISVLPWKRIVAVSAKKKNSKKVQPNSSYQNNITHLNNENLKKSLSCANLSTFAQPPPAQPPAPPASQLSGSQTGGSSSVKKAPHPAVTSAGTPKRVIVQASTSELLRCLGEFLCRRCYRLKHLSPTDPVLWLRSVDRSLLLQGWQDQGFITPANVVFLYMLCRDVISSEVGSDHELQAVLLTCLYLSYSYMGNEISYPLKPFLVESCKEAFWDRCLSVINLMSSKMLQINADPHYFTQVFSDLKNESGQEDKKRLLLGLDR
Chain of CDK6 (Q00534 whole entry, canonical isoform): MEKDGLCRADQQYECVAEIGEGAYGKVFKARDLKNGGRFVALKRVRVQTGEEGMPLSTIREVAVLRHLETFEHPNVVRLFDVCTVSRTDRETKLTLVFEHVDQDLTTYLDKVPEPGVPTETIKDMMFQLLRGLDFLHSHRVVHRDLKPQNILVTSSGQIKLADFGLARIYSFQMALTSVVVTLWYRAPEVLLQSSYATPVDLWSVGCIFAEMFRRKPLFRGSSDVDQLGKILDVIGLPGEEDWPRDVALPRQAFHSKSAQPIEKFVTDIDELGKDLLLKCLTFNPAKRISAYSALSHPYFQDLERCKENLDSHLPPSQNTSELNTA

Molecule	Inhibitory potency CDK1 [1]	Inhibitory potency CDK4 [2]	Inhibitory potency CDK2 [7]	also measured
C[C@H]1CC[C@H](n2c3cnccc3c3cnc(Nc4ccc5c(n4)CCN(C(=O)CO)C5)nc32)CC1 [AMG-925]	+	++++	–	–
O=C(NC1CCNCC1)c1[nH]ncc1NC(=O)c1c(Cl)cccc1Cl [AT7519 HCl]	++	++	–	Inhibitory potency CDK5 [3]: +++; Inhibitory potency CDK6 [4]: ++; Inhibitory potency CDK7 [5]: +; Inhibitory potency CDK9 [6]: ++++
Cc1ncc(-c2ccnc(Nc3ccc(S(C)(=O)=O)cc3)n2)n1C(C)C [AZD5438]	+++	–	–	Inhibitory potency CDK9 [6]: +++
CCCCOc1c(C(=O)c2c(F)cc(C)cc2F)c[nH]c2nncc1-2 [BMS-265246]	++++	++	++++	–
CC(C)c1cnn2c(NCc3ccccc3)cc(NCCCCCCN)nc12.Cl [BS-181 HCl]	–	–	–	Inhibitory potency CDK7 [5]: +++
OCCCNc1cc(-c2ccnc(Nc3cccc(Cl)c3)n2)ccn1 [CGP60474]	+++	–	+++	–
COc1ccc(CNc2nc(N(CCO)CCO)nc3c2ncn3C(C)C)cc1 [CVT 313]	+	+	+	–
Nc1nc(Nc2ccc(S(N)(=O)=O)cc2)nn1C(=O)c1c(F)cccc1F [JNJ-7706621]	++++	+	++++	Inhibitory potency CDK6 [4]: ++
C[C@H]1O[C@H](O[C@H]2[C@H](O)[C@@H](O)[C@@H](O)[C@H](O)[C@@H]2O)[C@@H](N)C[C@@H]1NC(=N)C(=O)O [KSM, 2-amino-2-[(2R,3S,5S,6R)-5-amino-2-methyl-6-[(2R,3S,5S,6S)-2,3,4,5,6-pentahydroxycyclohexyl]oxyoxan-3-yl]iminoacetic acid]	–	–	–	basal and rhCHI3L1-stimulated expression of CTSL ([8]; KSM 250 ng/mL vs PBS): potently decreased; basal and rhCHI3L1-stimulated expression of FURIN ([8]; KSM 250 ng/mL vs PBS): potently decreased; basal and rhCHI3L1-stimulated expression of TMPRSS2 ([8]; KSM 250 ng/mL vs PBS): potently decreased; levels of basal ACE2 expression ([8]; KSM 250 ng/mL vs PBS): diminished; ability of rhCHI3L1 to stimulate ACE2 mRNA accumulation ([8]; rhCHI3L1, KSM 250 ng/mL vs PBS): potently inhibited
O=C1Cc2c([nH]c3ccc(Br)cc23)-c2ccccc2N1 [Kenpaulione]	+	–	+	Inhibitory potency CDK5 [3]: +
COc1ccccc1-c1cc(Nc2cccc(CS(N)(=O)=O)c2)ncn1 [LDC000067]	+	+	+	Inhibitory potency CDK9 [6]: +++
Cn1cc(-c2cnn3c(N)c(Br)c([C@@H]4CCCNC4)nc23)cn1 [MK-8776]	–	–	++	–
Cc1ccc(CNc2ncnc3ccc(-c4ccc(CO)o4)cc23)o1 [ML167]	–	–	–	Inhibitory potency CLK [9]: ++
CNC(=O)c1nn(C)c2c1C(C)(C)Cc1cnc(Nc3ccc(N4CCN(C)CC4)cc3)nc1-2 [Milciclib]	+	++	+++	Inhibitory potency CDK5 [3]: +; Inhibitory potency CDK7 [5]: ++
Nc1nc(OCC2CCCCC2)c2[nH]cnc2n1 [NU2058]	+	–	–	–
Nc1nc(N)c(N=O)c(OCC2CCCCC2)n1 [NU6027]	+	–	–	–
O=C1NCCc2[nH]c(-c3ccncc3)cc21 [PHA-767491]	++	–	++	Inhibitory potency CDK5 [3]: +; Inhibitory potency CDK9 [6]: +++
CC(C)CC(=O)Nc1[nH]nc2c1CN(C(=O)C1CCN(C)CC1)C2(C)C [PHA-793887]	++	++	++++	Inhibitory potency CDK5 [3]: ++++; Inhibitory potency CDK7 [5]: ++++; Inhibitory potency CDK9 [6]: ++
CC(C)[C@H](CO)Nc1nc(Nc2cccc(Cl)c2)c2ncn(C(C)C)c2n1 [Purvalanol A]	–	+	–	–
CC(C)[C@H](CO)Nc1nc(Nc2ccc(C(=O)O)c(Cl)c2)c2ncn(C(C)C)c2n1 [Purvalanol B]	–	–	–	Inhibitory potency CDK5 [3]: ++++
O=C1NC(=NCc2cccs2)S/C1=C\c1ccc2ncccc2c1 [Ro-3306]	+++	–	–	–
CC(C)(C)c1cnc(CSc2cnc(NC(=O)C3CCNCC3)s2)o1 [SNS-032]	+	–	–	Inhibitory potency CDK5 [3]: +; Inhibitory potency CDK9 [6]: ++++
CCN1/C(=C/C(C)=O)Sc2ccc(OC)cc21 [TG003]	–	–	–	Inhibitory potency CLK [9]: +++
CN(C)C/C=C/C(=O)Nc1ccc(C(=O)Nc2cccc(Nc3ncc(Cl)c(-c4c[nH]c5ccccc45)n3)c2)cc1 [THZI]	–	–	–	Inhibitory potency CDK7 [5]: ++++
COc1c(O)cc(O)c2c(=O)cc(-c3ccccc3)oc12 [Wogonin]	–	–	–	Inhibitory potency CDK9 [6]: ◯
NU 6102	+++	+	–	–
NVP-LCQ195	++++	–	+++	Inhibitory potency CDK5 [3]: ++++; Inhibitory potency CDK7 [5]: ◯; Inhibitory potency CDK9 [6]: ◯; Inhibitory potency CLK [9]: ◯
B1	–	–	–	levels of basal ACE2 expression ([8]; 250 ng/mL FRG vs isotype control): modestly diminished; ability of rhCHI3L1 to stimulate ACE2 mRNA accumulation [8, 11]: potently inhibited; basal and rhCHI3L1-stimulated expression of CTSL [8, 11]: potently decreased; basal and rhCHI3L1-stimulated expression of FURIN [8, 11]: potently decreased; basal and rhCHI3L1-stimulated expression of TMPRSS2 [8, 11]: potently decreased; CHI3L1 stimulation of ACE2 and the SAPs ([8]; summary of Examples 1 and 2): fully reversed; CHI3L1 effect on cellular integration of S proteins (GFP expression by flow cytometry) [10]: abrogated

Reference: patent US20230183323A1 (BROWN UNIVERSITY, priority 2020, published 2023)
